{
  "source": "patent US20100166603A1",
  "about": "“Powder Sterilization” (NOXILIZER, Inc., priority 2008, published 2010)",
  "key": {"spore population": {"test_system": "spore population", "experiment": "NO2 gas exposure of powder under dry conditions (dry air diluent), spore inactivation", "type": "cell-based", "conditions": "10 mg/l NO2 gas, exposure 60 to 600 minutes", "from_the_text": "FIG. 10 is a log-linear scale of population against exposure time for an experiment carried out with a dry air diluent."}, "[1]": {"test_system": "spores in PVP/spore mixture powder", "experiment": "NO2 gas sterilization of tumbled PVP/spore mixture powder in humid air, CFU recovery", "type": "cell-based", "conditions": "for spore concentration after treatment: two vials present; for CFU per 100 mg: single plates", "procedure": "A test to determine whether 100 mg of (PVP) and spore mixture powder could be sterilized using an NO2 gas sterilization process that incorporates a powder tumbling system. The NO2 used was a 10% NO2/90% N2 mixture.\nA 2.2 cm diameter circular Tyvek® pieces was likewise cut and the Tyvek® piece was placed between the cap and the silicone septum ring forming a partially breathable cap on the vials, while maintaining the self-healing characteristic of the silicone septum.\nThe colony forming units (CFU's) recovered from each spore mixture were counted. Multiple plates and dilutions from a given biological indicator (BI) were averaged.\nVials were placed into a cylindrical mesh container. The container was in turn placed into a rock polisher that was configured to spin the container and the vials therein.\nThe second vial contained 100 mg of PVP/spore mixture with 10 3 mm glass beads (weight of the beads excluded). […]\nAfter the runs, the samples were processed and CFUs were counted after approximately 48 hours of incubation at 35° C.-39° C."}, "[2]": {"conditions": "Run 2 NX1080423A, 3.0 mm, 5 beads, 0.4% NO2, humid air to 25.13 in Hg, 40 min dwell"}, "[3]": {"conditions": "Run 2 NX1080423A, 3.0 mm, 10 beads, 0.4% NO2, humid air to 25.13 in Hg, 40 min dwell"}, "[4]": {"conditions": "Run 4 NX1080424B, 3.0 mm beads, Table 4 cycle, humid air per Table 5"}, "[5]": {"conditions": "Run 5 NX1080429A, 3.0 mm beads, Table 4 cycle, humid air per Table 5"}, "[6]": {"conditions": "Run 6 NX1080429B, 3.0 mm beads, Table 4 cycle, humid air per Table 5"}, "[7]": {"conditions": "Run 7 NX1080429C, 3.0 mm beads, Table 4 cycle, humid air per Table 5"}},
  "note": "“And” between values parts separate entries of the source, which are not always exact repeats. Equal entries are not always repeated.",
  "data": [
    {"smiles": "[O]N=O", "note": "[NO2, nitrogen dioxide]", "values": [
      {"measurement": "lethality", "setting": "spore population", "value": "acceptable lethality"},
      {"measurement": "final spore concentration", "setting": "[1]; 0.5 mm bead samples, three pulses, 21 in Hg of humidity added", "value": "4.0×10^−1 spores/100 mg"},
      {"measurement": "spore concentration after treatment", "setting": "[1]; 0.5 mm bead samples, 17 in Hg of humidity added", "value": "1.3×10^2 spores/100 mg"},
      {"measurement": "spore concentration after treatment", "setting": "[1]; 0.5 mm bead samples, 21 in Hg of humidity added", "value": "1.8×10^3 spores/100 mg"},
      {"measurement": "spore concentration after treatment", "setting": "[1]; 0.5 mm bead samples, 23 in Hg of humidity added", "value": "3.5×10^2 spores/100 mg"},
      {"measurement": "Average per 100 mg", "setting": "[1]; Run 1 NX1080422A, 0.5 mm beads, first vial, 0.4% NO2, humid air to 25.13 in Hg, 40 min dwell", "value": "2.4 × 10^4 per 100 mg"},
      {"measurement": "Average per 100 mg", "setting": "[1]; Run 1 NX1080422A, 0.5 mm beads, second vial, 0.4% NO2, humid air to 25.13 in Hg, 40 min dwell", "value": "6.2 × 10^4 per 100 mg"},
      {"measurement": "Average per 100 mg", "setting": "[1]; [2]", "value": ">2.0 × 10^5 per 100 mg"},
      {"measurement": "CFU per 100 mg", "setting": "[1]; [2]", "value": ">2.0 × 10^5 CFU per 100 mg"},
      {"measurement": "Average per 100 mg", "setting": "[1]; [3]", "value": ">2.0 × 10^5 per 100 mg"},
      {"measurement": "CFU per 100 mg", "setting": "[1]; [3]", "value": ">2.0 × 10^5 CFU per 100 mg"},
      {"measurement": "Average per 100 mg", "setting": "[1]; Run 3 NX1080424A, 0.5 mm beads, pre-humidity 10 min, 0.2%+0.2% NO2 with humid air, 10 min dwell, cycle repeats 2", "value": "3.4 × 10^3 per 100 mg"},
      {"measurement": "Average per 100 mg", "setting": "[1]; Run 3 NX1080424A, 3.0 mm beads, pre-humidity 10 min, 0.2%+0.2% NO2 with humid air, 10 min dwell, cycle repeats 2", "value": "8.6 × 10^4 per 100 mg"},
      {"measurement": "Average per 100 mg", "setting": "[1]; Run 4 NX1080424B, 0.5 mm beads, Table 4 cycle: pre-NO2 0.4% 10 min, 0.2%+0.2% NO2, humid air per Table 5, 10 min dwell", "value": "1.8 × 10^3 per 100 mg"},
      {"measurement": "Average per 100 mg", "setting": "[1]; [4]", "value": "4.0 × 10^4 per 100 mg"},
      {"measurement": "CFU per 100 mg", "setting": "[1]; [4]", "value": "4.0 × 10^4 CFU per 100 mg and 3.2 × 10^4 CFU per 100 mg and 5.4 × 10^4 CFU per 100 mg and 3.5 × 10^5 CFU per 100 mg"},
      {"measurement": "Average per 100 mg", "setting": "[1]; Run 5 NX1080429A, 0.5 mm beads, Table 4 cycle, humid air per Table 5", "value": "3.5 × 10^2 per 100 mg"},
      {"measurement": "Average per 100 mg", "setting": "[1]; [5]", "value": "3.6 × 10^4 per 100 mg"},
      {"measurement": "CFU per 100 mg", "setting": "[1]; [5]", "value": "3.5 × 10^4 CFU per 100 mg and 3.6 × 10^4 CFU per 100 mg"},
      {"measurement": "Average per 100 mg", "setting": "[1]; Run 6 NX1080429B, 0.5 mm beads, Table 4 cycle, humid air per Table 5", "value": "1.1 × 10^2 per 100 mg"},
      {"measurement": "Average per 100 mg", "setting": "[1]; [6]", "value": "1.9 × 10^4 per 100 mg"},
      {"measurement": "CFU per 100 mg", "setting": "[1]; [6]", "value": "1.6 × 10^4 CFU per 100 mg and 1.8 × 10^4 CFU per 100 mg and 2.7 × 10^4 CFU per 100 mg"},
      {"measurement": "Average per 100 mg", "setting": "[1]; Run 7 NX1080429C, 0.5 mm beads, Table 4 cycle, humid air per Table 5", "value": "1.3 × 10^2 per 100 mg"},
      {"measurement": "Average per 100 mg", "setting": "[1]; [7]", "value": "2.3 × 10^4 per 100 mg"},
      {"measurement": "CFU per 100 mg", "setting": "[1]; [7]", "value": "2.1 × 10^4 CFU per 100 mg and 2.0 × 10^4 CFU per 100 mg and 2.9 × 10^4 CFU per 100 mg and 2.3 × 10^4 CFU per 100 mg"},
      {"measurement": "Average per 100 mg", "setting": "[1]; Run 8 NX1080501B, 0.5 mm beads, one vial, Table 4 cycle, humid air and repeats per Table 5", "value": "1.8 × 10^2 per 100 mg"},
      {"measurement": "Average per 100 mg", "setting": "[1]; Run 9 NX1080501C, 0.5 mm beads, one vial, Table 4 cycle, humid air and repeats per Table 5", "value": "3.3 × 10^1 per 100 mg"},
      {"measurement": "Average per 100 mg", "setting": "[1]; Run 10 NX1080501D, 0.5 mm beads, one vial, Table 4 cycle, humid air and repeats per Table 5", "value": "5.0 × 10^0 per 100 mg"},
      {"measurement": "Average per 100 mg", "setting": "[1]; Run 11 NX1080501E, 0.5 mm beads, one vial, Table 4 cycle, humid air and repeats per Table 5", "value": "1.3 × 10^2 per 100 mg"},
      {"measurement": "Average per 100 mg", "setting": "[1]; Run 12 NX1080505A, 0.5 mm beads, one vial, Table 4 cycle, humid air and repeats per Table 5", "value": "2.2 × 10^1 per 100 mg"},
      {"measurement": "Average per 100 mg", "setting": "[1]; Run 13 NX1080505B, 0.5 mm beads, one vial, Table 4 cycle, humid air and repeats per Table 5", "value": "2.0 × 10^0 per 100 mg"},
      {"measurement": "Average per 100 mg", "setting": "[1]; Run 14 NX1080505C, 0.5 mm beads, one vial, Table 4 cycle, humid air and repeats per Table 5", "value": "4.0 × 10^−1 per 100 mg"},
      {"measurement": "Average per 100 mg", "setting": "[1]; Run 15 NX1080505D, 0.5 mm beads, one vial, Table 4 cycle, humid air and repeats per Table 5", "value": "8.0 × 10^0 per 100 mg"}
    ]}
  ]
}
